Data: patent US20260130377A1 (SYNGENTA CROP PROTECTION AG, priority 2022, published 2026)

Columns and labels:
Botrytis cinerea = experiment: liquid culture assay, 96 well plate, Botrytis cinerea; type: cell-based
Protocol: (§1) Cyclothiazomycin C was produced as disclosed in WO2015191789. A stock solution for cyclothiazomycin C was produced in DMSO (max. 10 mg/ml). Malonomicin was produced according to Law et al, 2018 (Nature Catalys is|VOL 1|DECEMBER 2018|977-984). A stock solution of malonomicin was produced in water plus 0.025% Tween®20.
(§2) Assays to test efficacy of mixtures of cyclothiazomycin C in combination with malonomicin on the control of fungal pathogens in a liquid culture assay were designed for a 96 well plate.
(§3) A master plate with 10× concentrated solution of the compound stock solutions diluted in water plus 0.025% Tween20 was prepared. The concentration of DMSO (from the stock of cyclothiazomycin C) and Tween20 was kept constant in all cells of th the master plate. 10 μl was transferred from the master plate to a 96 well test plate. The nutrient broth containing the fungal spores/mycelia fragments was then added to the test plate to give an end concentration of 1× for the tested compounds (as outlined in Table 1). The test plates were incubated in the dark at 24° C. and 96% rh. The inhibition of fungal growth was determined photometrically after ca. 3 days, and percent fungal growth reduction relative to the untreated check was calculated. Efficacy of the mixtures was tested on different fungal species:
Botrytis cinerea (EPPO Code: BOTRCI)
Conidia of the fungus from cryogenic storage were directly mixed into nutrient broth (Vogel's minimal media).

Puccinia recondita [1] = experiment: wheat leaf disc assay, Puccinia recondita, curative spray timing; type: in vivo
Protocol: as §1, with “Tween20.” for “Tween®20.”
(§4) Assays to test efficacy of mixtures of cyclothiazomycin C in combination with malonomicin on the control of fungal pathogens in a leaf disc assay were designed for two plates.
(§5) A first set of master plates with 1× concentrated spray solution of the cyclothiazomycin C stock diluted in water with concentrations according to Table 11 or Table 12, respectively, was prepared. Each well contained 2% DMSO and 0.025% Tween20. Accordingly, a second set of master plates with 1× concentrated malonomicin stock diluted in water was prepared. Each well of the second set contained 0.025% Tween20. Leaf segments placed on agar in plates are sprayed with 8 ul of solution from the master plate containing cyclothiazomycin C and the leaf segments were let to dry, followed 2 hours later by 8 ul of solution from the master plate containing malonomicin. After second sprays have dried, leaf segments are infected with fungal spores to obtain a preventive application timing. Alternatively, leaf segments infected one day before spray of the compounds are used, resulting in a curative spray timing. In addition, several plates were produced where leaf segments were sprayed 2× in absence of test compound (with only DMSO and Tween20), representing the untreated check samples. For each leaf segment percent leaf coverage of disease symptoms was assessed. Percent leaf coverage reduction relative to the untreated check was calculated. Efficacy of the mixtures was tested in duplicate. Reported efficacy values are the average of two replicate results.
Puccinia recondita (EPPO Code: PUCCRE) with Curative Spray Timing.
Wheat (cultivar Kanzler) leaf segments are placed on agar in multiwell plates. The leaf disks are then inoculated with a spore suspension of the fungus. One day after inoculation the test solution is sprayed (8 ul per well). After appropriate incubation the activity of a compound is assessed 8 dpi (days after inoculation) as curative fungicidal activity

[2] = tested on: a variety of fungal strains; details: quoted from WO2015191789, page 31; cited from earlier work
Zymoseptoria tritici = experiment: liquid culture assay, 96 well plate, Zymoseptoria tritici; type: cell-based
Protocol: as §1, §2, §3
Zymoseptoria tritici (EPPO Code: SEPTTR)
(§6) Conidia of the fungus from cryogenic storage were directly mixed into nutrient broth (PDB: potato dextrose broth).

Microdochium nivale = experiment: liquid culture assay, 96 well plate, Microdochium nivale; type: cell-based
Protocol: as §1, §2, §3
Microdochium nivale (EPPO Code: MONGNI)
as §6

Fusarium culmorum = experiment: liquid culture assay, 96 well plate, Fusarium culmorum; type: cell-based
Protocol: as §1, §2, §3
Fusarium culmorum (EPPO Code: FUSACU)
as §6

genus Bacillus = details: quoted from WO2015191789, page 31; cited from earlier work
Puccinia recondita [3] = experiment: wheat leaf disc assay, Puccinia recondita, preventive spray timing; type: in vivo
Protocol: as §1, with “Tween20.” for “Tween®20.”
as §4, §5
Puccinia recondita (EPPO Code: PUCCRE) with Preventive Spray Timing.
Wheat (cultivar Kanzler) leaf segments are placed on agar in multiwell plates and sprayed with test solutions (8 ul per well). After drying, the leaf disks are inoculated with a spore suspension of the fungus. After appropriate incubation the activity of a compound is assessed 8 dpi (days after inoculation) as preventive fungicidal activity.

[4] = cyclothiazomycin C 1.56 ppm solo
[5] = cyclothiazomycin C 3.125 ppm solo
[6] = cyclothiazomycin C 6.25 ppm solo
[7] = cyclothiazomycin C 12.5 ppm solo
[8] = cyclothiazomycin C 100 ppm solo
[9] = cyclothiazomycin C 3.13 ppm solo
[10] = cyclothiazomycin C 200 ppm solo

Question: Which “control of fungal growth” value (Botrytis cinerea; [4]) does the source give for `C=C1NC(=O)CNC(=O)[C@H](CCCCN)NC(=O)[C@@]2(C)NC(=O)/C(=C/C)NC(=O)[C@H]3CSC(=N3)[C@@H](CC(N)=O)NC(=O)c3ccc(nc3[C@@H](C)NC(=O)[C@@H]3CCCN3C1=O)-c1nc(cs1)C1=N[C@H](CS1)C(=O)NC(=C)c1nc(cs1)-c1nc(cs1)C1=N[C@@H](CS1)C(=O)N[C@@H](C(=O)O)CS2` [cyclothiazomycin C] here?
Answer: 20%

Question: And the “control of fungal growth” value (Botrytis cinerea; [5])?
Answer: 20%

Question: And the “control of fungal growth” value (Botrytis cinerea; [6])?
Answer: 20%

Question: And the “control of fungal growth” value (Botrytis cinerea; [7])?
Answer: 20%

Question: And the “control of fungal growth” value (Botrytis cinerea; cyclothiazomycin C 25 ppm solo)?
Answer: 20%

Question: And the “control of fungal growth” value (Botrytis cinerea; cyclothiazomycin C 50 ppm solo)?
Answer: 20%

Question: And the “control of fungal growth” value (Botrytis cinerea; [8])?
Answer: 20%

Question: What about the “control of fungal growth (% reduction of symtoms on the leaf segment)” value (Puccinia recondita [1]; [9]) of the same molecule?
Answer: 0%

Question: What about the “control of fungal growth (% reduction of symtoms on the leaf segment)” value (Puccinia recondita [1]; [6]) of the same molecule?
Answer: 10%

Question: And the “control of fungal growth (% reduction of symtoms on the leaf segment)” value (Puccinia recondita [1]; [7])?
Answer: 0%

Question: And the “control of fungal growth (% reduction of symtoms on the leaf segment)” value (Puccinia recondita [1]; cyclothiazomycin C 25 ppm solo)?
Answer: 0%

Question: What about the “control of fungal growth (% reduction of symtoms on the leaf segment)” value (Puccinia recondita [1]; cyclothiazomycin C 50 ppm solo) of the same molecule?
Answer: 0%

Question: What about the “control of fungal growth (% reduction of symtoms on the leaf segment)” value (Puccinia recondita [1]; [8]) of the same molecule?
Answer: 0%

Question: What about the “control of fungal growth (% reduction of symtoms on the leaf segment)” value (Puccinia recondita [1]; [10]) of the same molecule?
Answer: 0%

Question: And the “growth inhibitory action toward a variety of fungal strains” value [2]?
Answer: none was observed

Question: What about the “control of fungal growth” value (Zymoseptoria tritici; [4]) of the same molecule?
Answer: 70%

Question: What about the “control of fungal growth” value (Zymoseptoria tritici; [5]) of the same molecule?
Answer: 70%

Question: What about the “control of fungal growth” value (Zymoseptoria tritici; [6]) of the same molecule?
Answer: 70%

Question: What about the “control of fungal growth” value (Zymoseptoria tritici; [7]) of the same molecule?
Answer: 70%

Question: And the “control of fungal growth” value (Zymoseptoria tritici; cyclothiazomycin C 25 ppm solo)?
Answer: 90%

Question: What about the “control of fungal growth” value (Zymoseptoria tritici; cyclothiazomycin C 50 ppm solo) of the same molecule?
Answer: 90%

Question: What about the “control of fungal growth” value (Zymoseptoria tritici; [8]) of the same molecule?
Answer: 100%

Question: And the “control of fungal growth” value (Microdochium nivale; [4])?
Answer: 70%

Question: And the “control of fungal growth” value (Microdochium nivale; [5])?
Answer: 70%

Question: What about the “control of fungal growth” value (Microdochium nivale; [6]) of the same molecule?
Answer: 70%

Question: What about the “control of fungal growth” value (Microdochium nivale; [7]) of the same molecule?
Answer: 70%

Question: And the “control of fungal growth” value (Microdochium nivale; cyclothiazomycin C 25 ppm solo)?
Answer: 90%

Question: And the “control of fungal growth” value (Microdochium nivale; cyclothiazomycin C 50 ppm solo)?
Answer: 90%

Question: And the “control of fungal growth” value (Microdochium nivale; [8])?
Answer: 90%

Question: What about the “control of fungal growth” value (Fusarium culmorum; [4]) of the same molecule?
Answer: 20%

Question: And the “control of fungal growth” value (Fusarium culmorum; [5])?
Answer: 20%

Question: What about the “control of fungal growth” value (Fusarium culmorum; [6]) of the same molecule?
Answer: 20%

Question: What about the “control of fungal growth” value (Fusarium culmorum; [7]) of the same molecule?
Answer: 20%

Question: What about the “control of fungal growth” value (Fusarium culmorum; cyclothiazomycin C 25 ppm solo) of the same molecule?
Answer: 20%

Question: And the “control of fungal growth” value (Fusarium culmorum; cyclothiazomycin C 50 ppm solo)?
Answer: 20%

Question: What about the “control of fungal growth” value (Fusarium culmorum; [8]) of the same molecule?
Answer: 20%

Question: And the antimicrobial inhibitory activity (genus Bacillus)?
Answer: greatest inhibitory activity

Question: And the “control of fungal growth (% reduction of symtoms on the leaf segment)” value (Puccinia recondita [3]; [9])?
Answer: 0%

Question: What about the “control of fungal growth (% reduction of symtoms on the leaf segment)” value (Puccinia recondita [3]; [6]) of the same molecule?
Answer: 0%

Question: What about the “control of fungal growth (% reduction of symtoms on the leaf segment)” value (Puccinia recondita [3]; [7]) of the same molecule?
Answer: 10%

Question: And the “control of fungal growth (% reduction of symtoms on the leaf segment)” value (Puccinia recondita [3]; cyclothiazomycin C 25 ppm solo)?
Answer: 95%

Question: And the “control of fungal growth (% reduction of symtoms on the leaf segment)” value (Puccinia recondita [3]; cyclothiazomycin C 50 ppm solo)?
Answer: 95%

Question: What about the “control of fungal growth (% reduction of symtoms on the leaf segment)” value (Puccinia recondita [3]; [8]) of the same molecule?
Answer: 95%

Question: What about the “control of fungal growth (% reduction of symtoms on the leaf segment)” value (Puccinia recondita [3]; [10]) of the same molecule?
Answer: 100%
